Each structure is given as a SMILES string. “And” between values parts separate entries of the source, which are not always exact repeats. Identical values can stand only once.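 48-hour exposure; five concentrations; linearly interpolated endpoints. At the GI50, growth is halved. At the TGI there is no net growth.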

Experimental findings from PubChem BioAssay (NCI) are described below.

What all share (assay): growth of human tumour cells (NCI), 48 h
Test [1] deals with MDA-MB-231 breast.
In test [2] the test system is LOX IMVI melanoma.
Test [3] concerns SNB-19 CNS.
Test [4] deals with HCT-116 colon.
The test system of test [5] is SW-620 colon.
The subject of test [6] is A498 renal.
Test [7] has as its system SK-MEL-2 melanoma.
Test [8] deals with IGROV1 ovarian.

Turning to `O=C1C(Cl)=C(Nc2cccc(O)c2)C(=O)N1Cc1ccc(Cl)cc1`, the GI50 in test [1] was 1.1 µM; in test [2], 1.47 µM; in test [3], 2.64 µM; in test [4] it was 3.66 µM; in test [5] it was 2.56 µM; in test [6] it was 5000 nM. For the same molecule, the GI50 is 1.83 µM in test [7] and 3.93 µM in test [8]. The TGI in test [1] was 5.64 µM; in test [2], 6.34 µM; in test [3] it was 23.5 µM; in test [4] it was 25 µM; in test [5] it was 24.8 µM; in test [6], 21.8 µM. The figures for the TGI in test [7] and in test [8] were 9.36 µM and 40 µM, respectively.
As to `O=C(/C=C/c1cccc([N+](=O)[O-])c1)c1ccc(O)c(CN2CCN(c3cc4c(cc3F)c(=O)c(C(=O)O)cn4C3CC3)CC2)c1`, the GI50 in test [1] was 1.89 µM; in test [2], 0.364 µM; in test [3], 1.34 µM; in test [4] it was 0.494 µM; in test [5], 1.1 µM; in test [6] it was 1350 nM. Moreover, in test [7], the GI50 was 2.35 µM. In addition, the TGI in test [1] turned out to be 4.02 µM; in test [2] it was 1.41 µM; in test [3], 2.79 µM; in test [4], 1.81 µM; in test [5], 3.65 µM; in test [6], 2.84 µM. For the same molecule, in test [7], the TGI amounted to 5.17 µM.
Regarding `CN1CCN(C(=O)c2c(NC(=O)NS(=O)(=O)c3ccccc3)sc3c2CCCCC3)CC1`, the GI50 in test [1] was 27.5 µM; in test [2] it was 30 µM; in test [5] it was 43.9 µM; in test [6], 28800 nM; in test [7], 60.3 µM; in test [8], more than 100 µM. Besides, the TGI was 79.6 µM in test [1]; 84.9 µM in test [2]; more than 100 µM in test [5]; 65.8 µM in test [6]; more than 100 µM in test [7]; more than 100 µM in test [8].
As for `CC(=O)OCc1ccc(O)c(C=O)c1`, the TGI in test [1], in test [2], in test [3], in test [4], in test [5] and in test [7] was more than 100 µM in each case. The TGI in test [8] is more than 100 µM.
`CCCCCCCC(=O)OCC1OC(n2cc(F)c(=O)[nH]c2=O)C(NC(=O)OCc2ccccc2)C(O)C1O` (stereo not drawn): the TGI was more than 100 µM in test [2]; more than 100 µM in test [3]; more than 100 µM in test [4]; more than 100 µM in test [5]; more than 100 µM in test [6]; 53.5 µM in test [7]. The TGI in test [8] was more than 100 µM.
Turning to `COc1ccc(SC2c3ccc(C)cc3Oc3nc(N)c(C#N)c(N)c32)cc1` (stereo not drawn), the GI50 in test [1] is 1.81 µM; in test [2] it was 1.6 µM; in test [4], 1.82 µM; in test [5], 1.95 µM; in test [6], 1910 nM; in test [7], 1.72 µM. The TGI came out at 3.28 µM in test [1]; 3.11 µM in test [2]; 3.37 µM in test [4]; 4.08 µM in test [5]; 3.44 µM in test [6]; 3.59 µM in test [7].
Turning to `CC1(C)N=C(N)N=C(N)N1c1ccc(CCc2ccc(Cl)cc2S(=O)(=O)F)c(Cl)c1`, the GI50 in test [1] was 10.3 µM; in test [2], 4.04 µM; in test [3], 7.95 µM; in test [4] it was 2.56 µM; in test [5], 2.66 µM; in test [6], 62800 nM. Moreover, the GI50 in test [8] was 0.942 µM. For the same molecule, the TGI in test [1] is 67.5 µM; in test [2], 20.6 µM; in test [3], more than 100 µM; in test [4], 16.2 µM; in test [5], 17.7 µM; in test [6] it was more than 100 µM. This molecule also displayed a TGI in test [8] of more than 100 µM.
`O=C(O)c1ccc([S-])cc1.[Au+].c1ccc(CN2[CH-]N(Cc3ccccc3)C(c3ccccc3)=C2c2ccccc2)cc1`: the GI50 in test [1] is 0.304 µM; in test [2], 0.311 µM; in test [4] it was 0.301 µM; in test [5], 0.418 µM; in test [6], 246 nM; in test [7] it was 0.346 µM. The GI50 in test [8] is 0.541 µM. The TGI is 1.18 µM in test [1]; 1.37 µM in test [2]; 1.26 µM in test [4]; 1.93 µM in test [5]; 0.954 µM in test [6]; 1.21 µM in test [7]. Besides, in test [8], the TGI came out at 2.15 µM.
In the case of `COc1ccc2c3c(c4ccccc4cc13)C(=O)N(CCN(C)CCN)C2=O`, the GI50 in test [1] was 0.518 µM; in test [2] it was 0.0446 µM; in test [3], 0.0692 µM; in test [4] it was 0.0312 µM; in test [5], 0.0515 µM; in test [6], 393 nM. The GI50 in test [7] is 0.887 µM. The TGI in test [1] came out at 1.94 µM; in test [2] it was 0.381 µM; in test [3] it was 1.27 µM; in test [4], 1.17 µM; in test [5], 1.32 µM; in test [6], 1.73 µM. Moreover, the TGI in test [7] was 18.5 µM.
On to `CN1CCC(C(=O)Nc2n[nH]c3nc(-c4ccc(O)cc4)c(Br)cc23)CC1`, for which the GI50 in test [1] is 1.4 µM and 3.97 µM; in test [2], 0.574 µM and 0.661 µM; in test [3] it was 1.12 µM and 2.97 µM; in test [4] it was 0.776 µM and 0.855 µM; in test [5] it was 0.975 µM and 0.254 µM; in test [7], 0.692 µM and 1.66 µM. The GI50 in test [8] is 5.13 µM and 6.36 µM. The TGI in test [1] was 11.3 µM and 16 µM; in test [2] it was 5.45 µM and > 12.2 µM; in test [3] it was more than 25 µM; in test [4], more than 25 µM; in test [5], more than 25 µM; in test [7], 2.32 µM and 5.75 µM. Further, the TGI in test [8] is more than 25 µM.
Consider `C[C@]1(C(=O)O)N[C@H](C(=O)O)CS1`, for which the GI50 in test [1], in test [2], in test [3], in test [4], in test [5] and in test [7] was more than 1000 µM in each case. The GI50 in test [8] was more than 1000 µM. In addition, the TGI in test [1], in test [2], in test [3], in test [4], in test [5] and in test [7] was more than 1000 µM throughout. In test [8], this molecule gave a TGI of more than 1000 µM.
